Results reported in ChEMBL document CHEMBL1146685, “The difluoromethylene group as a replacement for the labile oxygen in steroid sulfates: a new approach to steroid sulfatase inhibitors” (Bioorg Med Chem Lett, 2004).

Legend:
Steryl-sulfatase [1] = target: T1, Steryl-sulfatase (Homo sapiens, UniProt P08842); experiment: (§1) Inhibitory activity against steroid sulfatase (STS)
T1 sequence (P08842 whole entry): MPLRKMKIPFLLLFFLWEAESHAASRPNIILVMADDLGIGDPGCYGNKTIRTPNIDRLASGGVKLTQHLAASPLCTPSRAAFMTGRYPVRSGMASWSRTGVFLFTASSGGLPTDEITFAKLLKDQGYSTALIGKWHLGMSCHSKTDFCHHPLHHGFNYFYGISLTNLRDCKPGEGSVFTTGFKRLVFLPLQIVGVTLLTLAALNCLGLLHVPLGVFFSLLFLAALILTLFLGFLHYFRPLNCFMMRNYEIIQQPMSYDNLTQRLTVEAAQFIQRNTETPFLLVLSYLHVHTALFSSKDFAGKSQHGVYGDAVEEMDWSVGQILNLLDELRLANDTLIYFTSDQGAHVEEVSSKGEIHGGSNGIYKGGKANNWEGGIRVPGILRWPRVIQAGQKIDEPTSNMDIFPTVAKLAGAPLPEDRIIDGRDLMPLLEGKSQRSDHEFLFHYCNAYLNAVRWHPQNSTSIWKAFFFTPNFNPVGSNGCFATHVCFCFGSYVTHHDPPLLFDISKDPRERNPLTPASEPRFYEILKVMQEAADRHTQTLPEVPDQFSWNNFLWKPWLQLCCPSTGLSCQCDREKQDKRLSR

Steryl-sulfatase [2] = target: T1, Steryl-sulfatase; experiment: Competitive inhibitory activity against steroid sulfatase (STS)
[3] = target: T2, Steryl-sulfatase (Homo sapiens) (UniProt P08842); experiment: as §1
T2 sequence (whole entry): T1 sequence (P08842 whole entry)

[4] = target: T2, Steryl-sulfatase (Homo sapiens)
Steryl-sulfatase [5] = target: T1, Steryl-sulfatase; experiment: Inhibitory activity against steroid sulfatase (STS) using methodology of Li et al.
[6] = substrate: C[C@]12CC[C@@H]3c4ccc(OS(=O)(=O)O)cc4CC[C@H]3[C@@H]1CCC2=O; experiment: Michaelis-Menten constant steroid sulfatase (STS) was determined

## C[C@]12CC[C@@H]3c4ccc(C(F)(F)S(=O)(=O)O)cc4CC[C@H]3[C@@H]1CC/C2=C\O
Steryl-sulfatase [1]
  Ki: 37 µM

## C[C@]12CC[C@@H]3c4ccc(CS(=O)(=O)O)cc4CC[C@H]3[C@@H]1CC/C2=C\O
Steryl-sulfatase [1]
  Ki: 140 µM

## C[C@]12CC[C@@H]3c4ccc(C(F)(F)C5N=NN=N5)cc4CC[C@H]3[C@@H]1CCC2=O
Steryl-sulfatase [2]
  Ki: 16 µM

## C[C@]12CC[C@@H]3c4ccc(Cc5nnn[nH]5)cc4CCC3[C@@H]1CCC2=O (single isomer, unassigned)
Steryl-sulfatase [1]
  Ki: 72.7 µM
[3]
  Alpha Ki: 213 µM

## C[C@]12CC[C@@H]3c4ccc(CS(=O)(=O)O)cc4CCC3[C@@H]1CCC2=O (single isomer, unassigned)
Steryl-sulfatase [1]
  Ki: 140 µM
[4]
  Alpha Ki: 1380 µM
Steryl-sulfatase [5]
  Ki: 600 µM

## C[C@]12CC[C@@H]3c4ccc(C(F)(F)S(=O)(=O)O)cc4CCC3[C@@H]1CCC2=O (single isomer, unassigned)
Steryl-sulfatase [2]
  Ki: 57 µM

B1: Steryl-sulfatase (Homo sapiens), P08842 (protein)
chain: T1 sequence (P08842 whole entry)
[6]
  Km: 21 µM
